Measurements as given in ChEMBL document CHEMBL1154214, “Scalarane sesterterpenoids: semisynthesis and biological activity” (J Nat Prod, 2009).

How the values were obtained:
[1] = system: SK-OV-3; experiment: Cytotoxicity against human SKOV3 cells after 48 hrs by Neutral red assay; type: functional, cell-based
[2] = system: SK-MEL; experiment: Cytotoxicity against human SK-MEL cells after 48 hrs by Neutral red assay; type: functional, cell-based
[3] = system: BT-549; experiment: Cytotoxicity against human BT549 cells after 48 hrs by Neutral red assay; type: functional, cell-based
[4] = system: Vero; experiment: Cytotoxicity against african green monkey Vero cells after 48 hrs by Neutral red assay; type: cell-based, Chlorocebus sabaeus
[5] = system: Staphylococcus aureus; experiment: Antimicrobial activity against methicillin resistant Staphylococcus aureus ATCC 43300; type: functional, organism-based
[6] = system: Mycobacterium intracellulare; experiment: Antimicrobial activity against […] Mycobacterium intracellular ATCC 23068; type: functional, organism-based
[7] = Homo sapiens, SK-OV-3, 48 h, read-out: IC50
[8] = Homo sapiens, SK-MEL, 48 h, read-out: IC50
[9] = Homo sapiens, BT-549, 48 h, read-out: IC50
[10] = Chlorocebus sabaeus, Vero, 48 h, read-out: IC50
[11] = Staphylococcus aureus, ATCC 43300, read-out: IC50
[12] = Mycobacterium intracellulare, ATCC 23068, read-out: IC50

SMILES	IC50 ([1]; sk-ov-3)	IC50 ([2]; sk-mel)	IC50 ([3]; bt-549)	IC50 ([4]; vero)	IC50 [5]	IC50 [6]	IC50 [1, 7] [µM]	IC50 [2, 8] [µM]	IC50 [3, 9] [µM]	IC50 [4, 10] [µM]	IC50 [5, 11] [µM]	IC50 [6, 12] [µM]	IC50 ([6]; Mycobacterium intracellulare, ATCC 23068) [µM]
CC1(C)CCC[C@]2(C)[C@H]3C[C@@H](O)[C@]4(C)C(CO)C(CO)=CC[C@H]4[C@]3(C)CC[C@@H]12 (some centres undefined)	Not Active	Not Active	Not Active	Not Active	Not Active	Not Active							
CC(=O)O[C@@H]1C[C@@H]2[C@@]3(C)CCCC(C)(C)[C@@H]3CC[C@@]2(C)[C@@H]2CC=C(C=O)[C@H](C=O)[C@@]12C						Not Active	23.3	> 42.7	21	22.2	6.3		
CC1(C)CCC[C@]2(C)[C@H]3CC(=O)[C@]4(C)[C@H](C=O)C(C=O)=CC[C@H]4[C@]3(C)CC[C@@H]12						Not Active	31.2	14.3	15.6	15.6	30.1		
CO[C@H]1O[C@@H](OC)[C@H]2C1=CC[C@H]1[C@]3(C)CC[C@H]4C(C)(C)CCC[C@]4(C)[C@H]3C[C@@H](O)[C@]21C	Not Active	Not Active	Not Active	Not Active	Not Active	Not Active							
CO[C@@H]1O[C@@H](OC)[C@H]2C1=CC[C@H]1[C@]3(C)CC[C@H]4C(C)(C)CCC[C@]4(C)[C@H]3C[C@@H](O)[C@]21C	Not Active	Not Active	Not Active	Not Active	Not Active	Not Active							
CC(=O)O[C@@H]1OCC2[C@@H](OC(C)=O)C[C@H]3[C@]4(C)CC[C@H]5C(C)(C)CCC[C@]5(C)[C@H]4C[C@@H](O)[C@]3(C)[C@H]21 (some centres undefined)					Not Active	Not Active	18.3	> 37.3	15.9	36.7			
CC(=O)O[C@@H]1OC=C2[C@@H](OC(C)=O)C[C@H]3[C@]4(C)CC[C@H]5C(C)(C)CCC[C@]5(C)[C@H]4CC(=O)[C@]3(C)[C@H]21		Not Active			Not Active		> 37.6		> 37.6	> 37.6		5.1	
CC1(C)CCC[C@]2(C)[C@H]3C[C@@H](O)[C@]4(C)c5cocc5C=C[C@H]4[C@]3(C)CC[C@@H]12	Not Active	Not Active	Not Active	Not Active	Not Active	Not Active							
CC1(C)CCC[C@]2(C)[C@H]3C[C@@H](O)[C@]4(C)[C@H]5COC(=O)C5=CC[C@H]4[C@]3(C)CC[C@@H]12	Not Active	Not Active	Not Active	Not Active	Not Active	Not Active							
CC(=O)O[C@@H]1C[C@@H]2[C@@]3(C)CCCC(C)(C)[C@@H]3CC[C@@]2(C)[C@@H]2CC=C3C(=O)O[C@@H](O)[C@@H]3[C@@]12C	Not Active	Not Active	Not Active	Not Active	Not Active	Not Active							
CC1(C)CCC[C@]2(C)[C@H]3C[C@@H](O)[C@]4(C)[C@H](C=O)C(C=O)=CC[C@H]4[C@]3(C)CC[C@@H]12						Not Active	19.4	18.6	12.9	20.7	3.8		
CC1(C)CCC[C@]2(C)[C@H]3C[C@@H](O)[C@]4(C)[C@@H](C=O)C(C=O)=CC[C@H]4[C@]3(C)CC[C@@H]12							31	26.4	19.4	19.4	22	38.8	
CC1(C)CCC[C@]2(C)[C@H]3CC(=O)[C@]4(C)[C@@H](C=O)C(C=O)=CC[C@H]4[C@]3(C)CC[C@@H]12						Not Active	41.6	14.6	15.6	18.2	27.8		
CO[C@@H]1C[C@H]2[C@]3(C)CC[C@H]4C(C)(C)CCC[C@]4(C)[C@H]3C[C@@H](O)[C@]2(C)c2cocc21 [16-O-METHYLSESTERSTATIN 4]	Not Active	Not Active	Not Active	Not Active	Not Active	Not Active							
O=C(O)c1cn(C2CC2)c2cc(N3CCNCC3)c(F)cc2c1=O [CIPROFLOXACIN]											0.14		0.47
COc1cccc2c1C(=O)c1c(O)c3c(c(O)c1C2=O)C[C@@](O)(C(=O)CO)C[C@@H]3O[C@H]1C[C@H](N)[C@H](O)[C@H](C)O1 [DOXORUBICIN]							0.8	1.2	1.2	6.3			
CC(=O)O[C@@H]1OC=C2[C@@H](OC(C)=O)C[C@H]3[C@]4(C)CC[C@H]5C(C)(C)CCC[C@]5(C)[C@H]4C[C@@H](OC(C)=O)[C@]3(C)[C@H]21 [HETERONEMIN ACETATE]					Not Active		18.8	16.7	18.8	9		18.8	
CC(=O)O[C@@H]1OC=C2[C@@H](OC(C)=O)C[C@H]3[C@]4(C)CC[C@H]5C(C)(C)CCC[C@]5(C)[C@H]4C[C@@H](O)[C@]3(C)[C@H]21 [HETERONEMIN]					Not Active		3.4	15.3	11.2	8.2		2.04	
CC(=O)O[C@H]1C[C@H]2[C@]3(C)CC[C@H]4C(C)(C)CCC[C@]4(C)[C@H]3C[C@@H](O)[C@]2(C)c2cocc21 [SCALARAFURAN]	Not Active	Not Active	Not Active	Not Active	Not Active	Not Active							
CC1(C)CCC[C@]2(C)[C@H]3C[C@@H](O)[C@]4(C)c5cocc5[C@@H](O)C[C@H]4[C@]3(C)CC[C@@H]12 [SESTERSTATIN 5]	Not Active	Not Active	Not Active	Not Active	Not Active	Not Active							
